Data reported in ChEMBL document CHEMBL4507315 (2021).

Legend:
[1] = test system: Tyrosine-protein kinase ABL1 (Homo sapiens), P00519 [F317I]; details: Compound concentration 100.0 nM
[2] = test system: Tyrosine-protein kinase ABL1 (Homo sapiens), P00519 [Y253F]; details: Compound concentration 100.0 nM
[3] = target: NUAK family SNF1-like kinase 1 (Homo sapiens) (UniProt O60285); details: Compound concentration 100.0 nM
[4] = target: BMP-2-inducible protein kinase (Homo sapiens) (UniProt Q9NSY1); details: Compound concentration 100.0 nM
[5] = target: Calcium/calmodulin-dependent protein kinase type II subunit beta (Homo sapiens) (UniProt Q13554); details: Compound concentration 100.0 nM
[6] = target: Cyclin-dependent kinase 2 (Homo sapiens) (UniProt P24941); details: Compound concentration 100.0 nM
[7] = target: Cyclin-dependent kinase 7 (Homo sapiens) (UniProt P50613); details: Compound concentration 100.0 nM
[8] = target: Death-associated protein kinase 2 (Homo sapiens) (UniProt Q9UIK4); details: Compound concentration 100.0 nM
[9] = target: Dual specificity tyrosine-phosphorylation-regulated kinase 1A (Homo sapiens) (UniProt Q13627); details: Compound concentration 100.0 nM
[10] = test system: Epidermal growth factor receptor (Homo sapiens), P00533 [G719S]; details: Compound concentration 100.0 nM
[11] = target: Ephrin type-A receptor 3 (Homo sapiens) (UniProt P29320); details: Compound concentration 100.0 nM
[12] = target: Serine/threonine-protein kinase/endoribonuclease IRE1 (Homo sapiens) (UniProt O75460); details: Compound concentration 100.0 nM
[13] = test system: Receptor-type tyrosine-protein kinase FLT3 (Homo sapiens), P36888 [K663Q]; details: Compound concentration 100.0 nM
[14] = test system: eIF-2-alpha kinase GCN2 (Homo sapiens), Q9P2K8 [S808G]; details: Compound concentration 100.0 nM
[15] = target: Rhodopsin kinase GRK7 (Homo sapiens) (UniProt Q8WTQ7); details: Compound concentration 100.0 nM
[16] = target: Interleukin-1 receptor-associated kinase 3 (Homo sapiens) (UniProt Q9Y616); details: Compound concentration 100.0 nM
[17] = target: Tyrosine-protein kinase JAK1 (Homo sapiens) (UniProt P23458); details: Compound concentration 100.0 nM
[18] = target: Tyrosine-protein kinase JAK3 (Homo sapiens) (UniProt P52333); details: Compound concentration 100.0 nM
[19] = test system: Mast/stem cell growth factor receptor Kit (Homo sapiens), P10721 [A829P]; details: Compound concentration 100.0 nM
[20] = test system: Mast/stem cell growth factor receptor Kit (Homo sapiens), P10721 [L576P]; details: Compound concentration 100.0 nM
[21] = test system: Leucine-rich repeat serine/threonine-protein kinase 2 (Homo sapiens), Q5S007 [G2019S]; details: Compound concentration 100.0 nM
[22] = target: Mitogen-activated protein kinase kinase kinase 2 (Homo sapiens) (UniProt Q9Y2U5); details: Compound concentration 100.0 nM
[23] = target: Myosin light chain kinase (Homo sapiens) (UniProt Q32MK0); details: Compound concentration 100.0 nM
[24] = target: Serine/threonine-protein kinase NIM1 (Homo sapiens) (UniProt Q8IY84); details: Compound concentration 100.0 nM
[25] = target: Cyclin-dependent kinase 16 (Homo sapiens) (UniProt Q00536); details: Compound concentration 100.0 nM
[26] = target: Cyclin-dependent kinase 15 (Homo sapiens) (UniProt Q96Q40); details: Compound concentration 100.0 nM
[27] = test system: Phosphatidylinositol 4,5-bisphosphate 3-kinase catalytic subunit alpha isoform (Homo sapiens), P42336 [C420R]; details: Compound concentration 100.0 nM
[28] = test system: Phosphatidylinositol 4,5-bisphosphate 3-kinase catalytic subunit alpha isoform (Homo sapiens), P42336 [E542K]; details: Compound concentration 100.0 nM
[29] = test system: Phosphatidylinositol 4,5-bisphosphate 3-kinase catalytic subunit alpha isoform (Homo sapiens), P42336 [H1047Y]; details: Compound concentration 100.0 nM
[30] = target: Phosphatidylinositol 4,5-bisphosphate 3-kinase catalytic subunit delta isoform (Homo sapiens) (UniProt O00329); details: Compound concentration 100.0 nM
[31] = target: Phosphatidylinositol 4-phosphate 5-kinase type-1 alpha (Homo sapiens) (UniProt Q99755); details: Compound concentration 100.0 nM
[32] = target: cGMP-dependent protein kinase 1 (Homo sapiens) (UniProt Q13976); details: Compound concentration 100.0 nM
[33] = target: Serine/threonine-protein kinase RIO2 (Homo sapiens) (UniProt Q9BVS4); details: Compound concentration 100.0 nM
[34] = target: Receptor-interacting serine/threonine-protein kinase 4 (Homo sapiens) (UniProt P57078); details: Compound concentration 100.0 nM
[35] = target: Ribosomal protein S6 kinase alpha-1 (Homo sapiens) (UniProt Q15418); details: Compound concentration 100.0 nM
[36] = target: Serine/threonine-protein kinase Sgk1 (Homo sapiens) (UniProt O00141); details: Compound concentration 100.0 nM
[37] = target: Uncharacterized serine/threonine-protein kinase SBK3 (Homo sapiens) (UniProt P0C264); details: Compound concentration 100.0 nM
[38] = target: Serine/threonine-protein kinase 36 (Homo sapiens) (UniProt Q9NRP7); details: Compound concentration 100.0 nM
[39] = target: Serine/threonine-protein kinase TAO1 (Homo sapiens) (UniProt Q7L7X3); details: Compound concentration 100.0 nM
[40] = target: Non-receptor tyrosine-protein kinase TYK2 (Homo sapiens) (UniProt P29597); details: Compound concentration 100.0 nM
[41] = target: Serine/threonine-protein kinase WNK2 (Homo sapiens) (UniProt Q9Y3S1); details: Compound concentration 100.0 nM
[42] = target: 5-hydroxytryptamine receptor 1D (Homo sapiens) (UniProt P28221); details: Compound concentration 10.0 uM
[43] = target: 5-hydroxytryptamine receptor 6 (Homo sapiens) (UniProt P50406); details: Compound concentration 10.0 uM
[44] = target: Muscarinic acetylcholine receptor M1 (Homo sapiens) (UniProt P11229); details: Compound concentration 10.0 uM
Muscarinic acetylcholine receptor M1 (Homo sapiens), sequence (P11229 whole entry): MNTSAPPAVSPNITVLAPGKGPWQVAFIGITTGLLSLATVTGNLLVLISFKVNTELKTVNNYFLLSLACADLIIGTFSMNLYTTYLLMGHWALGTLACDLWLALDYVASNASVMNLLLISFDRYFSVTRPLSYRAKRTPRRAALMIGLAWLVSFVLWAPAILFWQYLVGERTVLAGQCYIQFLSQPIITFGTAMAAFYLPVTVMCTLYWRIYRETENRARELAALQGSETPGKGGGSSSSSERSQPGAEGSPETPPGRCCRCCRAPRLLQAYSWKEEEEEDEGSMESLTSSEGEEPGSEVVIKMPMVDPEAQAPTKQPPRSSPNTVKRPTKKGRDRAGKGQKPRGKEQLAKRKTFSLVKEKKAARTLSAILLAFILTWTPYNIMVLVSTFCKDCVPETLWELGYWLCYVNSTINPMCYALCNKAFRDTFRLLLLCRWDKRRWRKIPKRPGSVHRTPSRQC

Serine/threonine-protein kinase NIM1 (Homo sapiens), sequence (Q8IY84 whole entry): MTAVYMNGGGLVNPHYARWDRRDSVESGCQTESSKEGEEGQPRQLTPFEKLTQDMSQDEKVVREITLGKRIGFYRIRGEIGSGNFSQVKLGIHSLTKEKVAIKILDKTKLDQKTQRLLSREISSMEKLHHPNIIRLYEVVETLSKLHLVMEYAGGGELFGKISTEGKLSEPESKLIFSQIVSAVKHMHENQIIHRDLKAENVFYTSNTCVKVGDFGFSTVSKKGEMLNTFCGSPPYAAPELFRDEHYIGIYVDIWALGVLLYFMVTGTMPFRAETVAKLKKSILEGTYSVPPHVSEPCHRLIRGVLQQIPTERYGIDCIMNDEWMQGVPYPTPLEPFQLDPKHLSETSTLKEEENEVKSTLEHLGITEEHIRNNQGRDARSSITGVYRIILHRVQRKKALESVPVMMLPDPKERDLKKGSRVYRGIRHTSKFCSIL
Non-receptor tyrosine-protein kinase TYK2 (Homo sapiens), sequence (P29597 whole entry): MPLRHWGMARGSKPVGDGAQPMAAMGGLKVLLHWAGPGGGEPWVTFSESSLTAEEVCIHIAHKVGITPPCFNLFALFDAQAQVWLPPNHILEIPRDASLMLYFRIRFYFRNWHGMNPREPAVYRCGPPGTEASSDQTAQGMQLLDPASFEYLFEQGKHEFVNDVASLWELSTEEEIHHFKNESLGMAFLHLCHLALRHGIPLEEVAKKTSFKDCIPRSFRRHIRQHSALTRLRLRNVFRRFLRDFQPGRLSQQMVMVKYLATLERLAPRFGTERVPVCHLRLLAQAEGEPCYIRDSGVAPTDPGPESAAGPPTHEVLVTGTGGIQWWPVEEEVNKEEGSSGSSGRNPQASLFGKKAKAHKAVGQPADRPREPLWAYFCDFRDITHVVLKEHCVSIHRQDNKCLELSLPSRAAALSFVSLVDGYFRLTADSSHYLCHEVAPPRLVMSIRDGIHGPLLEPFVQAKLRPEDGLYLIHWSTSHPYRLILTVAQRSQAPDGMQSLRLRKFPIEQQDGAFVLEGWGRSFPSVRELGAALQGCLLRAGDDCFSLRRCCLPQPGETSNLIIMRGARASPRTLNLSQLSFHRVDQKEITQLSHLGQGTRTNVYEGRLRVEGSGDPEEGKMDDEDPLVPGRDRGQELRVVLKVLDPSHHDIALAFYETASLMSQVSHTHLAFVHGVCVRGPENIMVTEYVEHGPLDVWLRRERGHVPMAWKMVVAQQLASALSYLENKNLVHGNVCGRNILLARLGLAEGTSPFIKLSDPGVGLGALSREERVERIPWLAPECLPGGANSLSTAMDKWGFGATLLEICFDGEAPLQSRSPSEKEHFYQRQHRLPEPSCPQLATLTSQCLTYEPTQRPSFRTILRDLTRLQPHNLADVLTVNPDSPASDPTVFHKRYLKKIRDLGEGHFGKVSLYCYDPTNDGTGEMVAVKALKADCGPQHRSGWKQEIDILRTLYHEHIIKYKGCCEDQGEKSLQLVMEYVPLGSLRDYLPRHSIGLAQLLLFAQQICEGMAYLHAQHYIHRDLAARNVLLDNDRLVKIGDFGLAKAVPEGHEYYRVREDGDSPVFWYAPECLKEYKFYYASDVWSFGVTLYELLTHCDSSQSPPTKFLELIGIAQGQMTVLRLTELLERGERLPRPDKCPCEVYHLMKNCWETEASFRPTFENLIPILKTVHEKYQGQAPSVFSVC
Ribosomal protein S6 kinase alpha-1 (Homo sapiens), sequence (Q15418 whole entry): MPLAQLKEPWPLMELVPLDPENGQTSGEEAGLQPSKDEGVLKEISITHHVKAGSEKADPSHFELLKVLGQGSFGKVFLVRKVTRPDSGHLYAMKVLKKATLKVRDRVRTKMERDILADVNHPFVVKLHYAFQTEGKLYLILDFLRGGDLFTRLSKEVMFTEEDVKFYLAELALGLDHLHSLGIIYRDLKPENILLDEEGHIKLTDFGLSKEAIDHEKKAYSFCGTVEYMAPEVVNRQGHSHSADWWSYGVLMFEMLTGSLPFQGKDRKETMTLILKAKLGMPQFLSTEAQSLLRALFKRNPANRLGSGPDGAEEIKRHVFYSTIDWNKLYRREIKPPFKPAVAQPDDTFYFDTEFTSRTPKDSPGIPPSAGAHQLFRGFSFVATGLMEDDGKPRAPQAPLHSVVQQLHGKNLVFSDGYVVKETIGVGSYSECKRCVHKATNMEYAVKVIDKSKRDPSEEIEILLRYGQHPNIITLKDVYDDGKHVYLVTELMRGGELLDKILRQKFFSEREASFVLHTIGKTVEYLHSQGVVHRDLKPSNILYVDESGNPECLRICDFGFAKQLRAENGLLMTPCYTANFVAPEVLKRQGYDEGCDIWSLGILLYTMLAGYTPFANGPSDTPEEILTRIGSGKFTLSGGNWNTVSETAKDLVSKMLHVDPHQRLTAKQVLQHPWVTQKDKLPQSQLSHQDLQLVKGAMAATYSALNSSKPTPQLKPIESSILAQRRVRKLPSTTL
Phosphatidylinositol 4,5-bisphosphate 3-kinase catalytic subunit alpha isoform (Homo sapiens), P42336 [H1047Y], sequence (P42336 whole entry H1047Y, canonical isoform): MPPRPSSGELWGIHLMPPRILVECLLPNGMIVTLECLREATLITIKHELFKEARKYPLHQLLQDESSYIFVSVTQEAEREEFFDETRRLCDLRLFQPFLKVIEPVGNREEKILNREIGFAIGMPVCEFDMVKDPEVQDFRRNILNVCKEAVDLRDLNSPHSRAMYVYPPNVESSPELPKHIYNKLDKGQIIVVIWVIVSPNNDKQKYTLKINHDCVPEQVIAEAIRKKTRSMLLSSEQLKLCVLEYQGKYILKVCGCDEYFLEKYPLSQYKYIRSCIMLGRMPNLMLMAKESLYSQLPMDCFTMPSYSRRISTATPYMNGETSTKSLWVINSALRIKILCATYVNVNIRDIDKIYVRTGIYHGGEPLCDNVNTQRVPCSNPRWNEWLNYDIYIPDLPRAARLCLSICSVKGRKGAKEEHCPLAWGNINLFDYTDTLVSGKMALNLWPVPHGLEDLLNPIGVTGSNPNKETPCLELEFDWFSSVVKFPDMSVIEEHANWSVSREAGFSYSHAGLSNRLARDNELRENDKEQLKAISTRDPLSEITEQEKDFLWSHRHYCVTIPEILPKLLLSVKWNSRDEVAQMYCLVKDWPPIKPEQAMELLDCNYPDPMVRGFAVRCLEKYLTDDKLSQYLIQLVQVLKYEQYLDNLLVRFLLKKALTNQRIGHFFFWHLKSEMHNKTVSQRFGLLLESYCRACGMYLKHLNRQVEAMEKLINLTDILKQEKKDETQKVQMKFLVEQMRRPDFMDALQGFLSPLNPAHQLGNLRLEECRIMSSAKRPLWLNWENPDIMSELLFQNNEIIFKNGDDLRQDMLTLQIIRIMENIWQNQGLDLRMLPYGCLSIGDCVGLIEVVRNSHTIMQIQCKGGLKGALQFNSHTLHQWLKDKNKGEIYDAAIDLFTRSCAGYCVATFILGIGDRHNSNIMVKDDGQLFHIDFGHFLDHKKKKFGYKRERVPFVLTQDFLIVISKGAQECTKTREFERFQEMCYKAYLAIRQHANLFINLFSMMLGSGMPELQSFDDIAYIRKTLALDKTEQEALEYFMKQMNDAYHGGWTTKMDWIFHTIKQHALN
Rhodopsin kinase GRK7 (Homo sapiens), sequence (Q8WTQ7 whole entry): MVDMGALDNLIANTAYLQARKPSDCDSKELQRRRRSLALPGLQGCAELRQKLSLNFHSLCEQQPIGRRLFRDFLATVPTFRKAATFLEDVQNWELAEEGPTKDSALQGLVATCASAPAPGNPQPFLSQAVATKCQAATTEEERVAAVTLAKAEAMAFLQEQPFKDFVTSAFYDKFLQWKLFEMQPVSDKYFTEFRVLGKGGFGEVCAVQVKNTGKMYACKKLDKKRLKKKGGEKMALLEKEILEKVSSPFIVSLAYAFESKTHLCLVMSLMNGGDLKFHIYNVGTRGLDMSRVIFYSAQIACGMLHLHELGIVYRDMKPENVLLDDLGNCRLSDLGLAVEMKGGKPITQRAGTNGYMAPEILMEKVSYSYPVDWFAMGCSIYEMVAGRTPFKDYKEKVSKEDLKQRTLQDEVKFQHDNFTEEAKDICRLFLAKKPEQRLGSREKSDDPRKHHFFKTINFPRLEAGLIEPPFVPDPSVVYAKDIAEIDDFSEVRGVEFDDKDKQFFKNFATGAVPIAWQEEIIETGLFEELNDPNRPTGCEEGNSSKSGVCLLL
Mitogen-activated protein kinase kinase kinase 2 (Homo sapiens), sequence (Q9Y2U5 whole entry): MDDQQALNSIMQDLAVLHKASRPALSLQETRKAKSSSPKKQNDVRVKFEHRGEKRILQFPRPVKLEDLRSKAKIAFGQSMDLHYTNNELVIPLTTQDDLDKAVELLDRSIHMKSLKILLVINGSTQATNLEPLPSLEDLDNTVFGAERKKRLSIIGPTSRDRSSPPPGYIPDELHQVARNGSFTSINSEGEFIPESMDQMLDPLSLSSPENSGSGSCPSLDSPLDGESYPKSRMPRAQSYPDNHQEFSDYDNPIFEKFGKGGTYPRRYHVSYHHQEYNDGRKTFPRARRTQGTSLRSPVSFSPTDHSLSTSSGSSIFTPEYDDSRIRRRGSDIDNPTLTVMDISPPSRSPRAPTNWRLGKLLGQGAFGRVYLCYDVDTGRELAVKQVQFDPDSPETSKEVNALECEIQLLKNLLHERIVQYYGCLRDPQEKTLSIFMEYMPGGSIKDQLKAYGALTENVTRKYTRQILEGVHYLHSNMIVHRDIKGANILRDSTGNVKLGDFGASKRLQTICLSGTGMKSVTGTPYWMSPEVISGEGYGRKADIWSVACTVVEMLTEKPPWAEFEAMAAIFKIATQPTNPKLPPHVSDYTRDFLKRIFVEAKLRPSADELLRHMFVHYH

Nc1c(C(=O)NCc2ccc(C(=O)NCCCC3CCCCC3)cc2)cnn1-c1ccccc1 [SR-318]
inactive: residual activity [1] 100% | residual activity [2] 100% | residual activity [3] 100% | residual activity [4] 100% | residual activity [5] 100% | residual activity [6] 96% | residual activity [7] 100% | residual activity [8] 100% | residual activity [9] 100% | residual activity [10] 84% | residual activity [11] 100% | residual activity [12] 100% | residual activity [13] 100% | residual activity [14] 100% | residual activity [15] 100% | residual activity [16] 94% | residual activity [17] 100% | residual activity [18] 100% | residual activity [19] 100% | residual activity [20] 73% | residual activity [21] 100% | residual activity [22] 100% | residual activity [23] 100% | residual activity [24] 81% | residual activity [25] 97% | residual activity [26] 95% | residual activity [27] 100% | residual activity [28] 100% | residual activity [29] 77% | residual activity [30] 94% | residual activity [31] 100% | residual activity [32] 74% | residual activity [33] 92% | residual activity [34] 100% | residual activity [35] 100% | residual activity [36] 100% | residual activity [37] 87% | residual activity [38] 100% | residual activity [39] 91% | residual activity [40] 88% | residual activity [41] 100% | inhibition [42] 27.6% | inhibition [43] 26.8% | inhibition [44] 31.1%

O=C(NCCCC1CCCCC1)c1ccc(CNC(=O)c2cnn(-c3ccccc3)c2C(F)(F)F)cc1 [SR-321]
inactive: residual activity [1] 100% | residual activity [2] 98% | residual activity [3] 100% | residual activity [4] 100% | residual activity [5] 96% | residual activity [6] 96% | residual activity [7] 100% | residual activity [8] 98% | residual activity [9] 99% | residual activity [10] 80% | residual activity [11] 91% | residual activity [12] 94% | residual activity [13] 100% | residual activity [14] 100% | residual activity [15] 100% | residual activity [16] 100% | residual activity [17] 100% | residual activity [18] 100% | residual activity [19] 100% | residual activity [20] 100% | residual activity [21] 100% | residual activity [22] 100% | residual activity [23] 92% | residual activity [24] 70% | residual activity [25] 100% | residual activity [26] 77% | residual activity [27] 85% | residual activity [28] 74% | residual activity [29] 100% | residual activity [30] 100% | residual activity [31] 100% | residual activity [32] 100% | residual activity [33] 100% | residual activity [34] 58% | residual activity [35] 100% | residual activity [36] 100% | residual activity [37] 100% | residual activity [38] 100% | residual activity [39] 96% | residual activity [40] 100% | residual activity [41] 100% | inhibition [42] -8.35% | inhibition [43] -0.05% | inhibition [44] 11.8%
